Results published in US20080183070A1, “Multi-mode medical device system with thermal ablation capability and methods of using same” (Wisconsin Alumni Research Foundation, priority 2007, published 2008).

Key:
[1] = MR visibility test of the functional gelatin coating on PE rod in saline and yogurt (Example 14); conditions: after soaking in water for 12 hours
Experimental: Samples having the above formulations were transferred to a glass tube and kept in a water bath at 35° C. A bare PE rod (5 cm in length) was then dipped into the solution, and then removed. The rod was then cooled to room temperature to allow chill-setting of the gelatin solution and to form the coating on the rod surface. The same procedure was repeated to overcoat additional layers of gel. The final dry thickness of gel-coating was about 60 μm.
The gelatin coatings were dried in air while being chemically cross-linked by BVSM. The dried and cross-linked samples were then soaked in distilled water for 12 hours. Soaking each sample in distilled water may remove the DTPA[Gd(III)] that was not physically or chemically constrained by the cross-linked network of gelatin overcoat. Because the DTPA[Gd(III)] complexes were not chemically linked to the gelatin chains, most of them would be expected to diffuse out of the coating when soaked in water, whereas some of DTPA[Gd(III)] may be confined by the crystal domains in gelatin or by hydrogen bonding between gelatin chains and DTPA. In any event, after the soaking, the gelatin coating was dried again in air before MRI test.
The MR visibility of the samples prepared as outlined above, was tested in two media: saline and yogurt. […]

[2] = Diffusion of a fluorescent probe in swollen gelatin gel by FRAP; assay type: physicochemical
Excerpt: To assess the stability of DTPA[Gd(III)] in the gelatin coating, the diffusion of a fluorescence probe in gelatin was studied by the technique of fluorescence recovery after photobleaching (FRAP). The instrument and data analysis scheme are described in Kim, S. H. and Yu, H., J. Phys. Chem. 1992, 96, 4034, which is hereby fully incorporated by reference. Fluorescein was used as the fluorescence probe due, in part, to its molecular size being roughly the same as that of DTPA[Gd(III)].
The focus of the study was to examine the possible retardation effects of gelatin concentration and cross-link density on the diffusion, which was determined at room temperature, i.e., below the gel point of gelatin. The diffusion of fluorescein probe slows down with the increase of gelatin concentration. The diffusion coefficient decreases from 1.5×10-10 to 9×10-12 m2s−1 when the concentration of gelatin increases from 9% to 40%. […] Accordingly, the probe diffusion is more likely controlled by the concentration of gelatin rather than the cross-link density. On the other hand, the cross-link density may determine the swelling ratio of gelatin, i.e., the concentration of gelatin in aqueous solution. […]

Compound: O=C([O-])CN(CCN(CC(=O)[O-])CC(=O)O)CCN(CC(=O)[O-])CC(=O)O.[Gd+3] [DTPA[Gd(III)], gadolinium-diethylene triamine pentaacetic acid]
- Retention in the gelatin coating [1]: some fraction of DTPA[Gd(III)] remained in the gel

Compound: O=C(O)CN(CCN(CC(=O)O)CC(=O)O)CCN(CC(=O)O)CC(=O)O [DTPA, diethylenetriaminepentaacetic acid]
- Time to diffuse out of the gelatin coating ([2]; coating thickness 60 μm, diffusion coefficient 9×10-12 m2s−1): about 67 seconds

Compound: O=C1OC2(c3ccc(O)cc3Oc3cc(O)ccc32)c2ccccc21 [fluorescein]
- Fluorescence signal remaining in gelatin films ([2]; films soaked in water for 18 hours, including non-cross-linked films): still fluorescence signal
